The term melting point denotes the temperature of the solid-liquid transition.

Series [1] concerns SMN2 minigene mRNA (SMN2-A minigene) in HEK293H cells. Kind of series: SMN2 minigene mRNA splicing RT-qPCR assay in cultured cells. The following applies: Homo sapiens, HEK293-H; concentration increasing full length SMN2 mRNA 1.5-fold relative to vehicle-treated cells; HEK293H cells with SMN2-A minigene, 24 hours, 7-point concentration data; read-out: EC1.5x for production of full length SMN2 mRNA. The format is cell-based, human. In short, it runs like this: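 HEK293H cells stably carrying the SMN2-A minigene were treated for 24 h at 37 °C with a 7-point, 3.16-fold dilution series of compound. Multiplex RT-qPCR measured exon 7-containing minigene FL mRNA against GAPDH, expressed relative to vehicle by modified ΔΔCt; the EC1.5× is the concentration giving a 1.5-fold increase.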
(Quantitative PCR measures a nucleic acid by following its amplification.)

For series [2], the system named is Smn protein in SMA patient fibroblast cells (GM03813). The experiment in a line: Smn protein assay in cultured cells (SMN HTRF). It is filed as cell-based, human. The following applies: SMA patient fibroblast cells, 48 hours; for EC1.5x for Smn protein expression: 7-point concentration curve, SMN HTRF, concentration producing 1.5 times Smn protein vs DMSO vehicle control; for maximum fold (Fold) increase of Smn protein: 7-point concentration data, fold relative to vehicle control. The method in brief:
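SMA patient fibroblasts (5,000 cells/well, DMEM-10% FBS) were treated for 48 h at 37 °C with a 7-point, 3.16-fold dilution series in triplicate. RIPA lysates were probed by HTRF (anti-SMN d2/kryptate, overnight, room temperature), reading 665/620 nm. EC1.5× is the concentration giving 1.5-fold Smn over DMSO vehicle.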
(TR-FRET usually uses a lanthanide donor and a delayed reading to cut background.)

In turn, `CCc1nc(C)cn2nc(-c3cc(=O)n4cc(C5CCN(CCO)CC5)ccc4n3)cc12` [Compound 659, 2-(4-ethyl-6-methylpyrazolo[1,5-a]pyrazin-2-yl)-7-[1-(2-hydroxyethyl)piperidin-4-yl]-4H-pyrido[1,2-a]pyrimidin-4-one] returned a melting point of 207 to 209 °C. For the same molecule, the EC (1.5-fold increase) in series [1] is less than 0.1 µM. Also, in series [2], the “EC1.5x for Smn protein expression” value is “**** (an EC1.5x≤0.3 μM is indicated by four stars (****))” and the “maximum fold (Fold) increase of Smn protein” value (“maximum fold (Fold) increase” below) is listed as “***** (a fold increase >1.65 is indicated by five stars (*****))”.
For `Cc1ccc(-c2cc(=O)n3cc(N4CCNCC4)ccc3n2)cc1` [Compound 63, 2-(4-methylphenyl)-7-(piperazin-1-yl)-4H-pyrido[1,2-a]pyrimidin-4-one], the melting point was 192 to 195 °C. Moreover, the EC (1.5-fold increase) in series [1] lay in the range of 1 to 3 µM. The “maximum fold (Fold) increase” value in series [2] was “** (a fold increase between >1.2 and ≤1.35 is indicated by two stars (**))”.
Molecule `Cc1cn2cc(-c3cc(=O)n4cc(N5CCN(C6CC6)CC5)ccc4n3)cc(F)c2n1` [Compound 412, 7-(4-cyclopropylpiperazin-1-yl)-2-(8-fluoro-2-methylimidazo[1,2-a]pyridin-6-yl)-4H-pyrido[1,2-a]pyrimidin-4-one] had a melting point of 254 to 258 °C. Besides, the EC (1.5-fold increase) in series [1] was less than 0.1 µM. Moreover, in series [2], the “EC1.5x for Smn protein expression” value is listed as “**** (an EC1.5x≤0.3 μM is indicated by four stars (****))” and the “maximum fold (Fold) increase” value is on record as “***** (a fold increase >1.65 is indicated by five stars (*****))”.
Consider `Cc1cn2nc(-c3cc(=O)n4cc(N5CCC(CN6CCCC6)CC5)ccc4n3)cc2c(C)n1` [Compound 571, 2-(4,6-dimethylpyrazolo[1,5-a]pyrazin-2-yl)-7-[4-(pyrrolidin-1-ylmethyl)piperidin-1-yl]-4H-pyrido[1,2-a]pyrimidin-4-one], for which the melting point lay in the range of 177 to 180 °C. In addition, the EC (1.5-fold increase) in series [1] is 0.3 to 1 µM. In series [2], the “EC1.5x for Smn protein expression” value is “** (an EC1.5× between >1 μM and ≤3 μM is indicated by two stars (**))”; the “maximum fold (Fold) increase” value is “**** (a fold increase between >1.5 and ≤1.65 is indicated by four stars (****))”.
For the molecule `O=c1cc(-c2ccc3c(c2)OCCO3)nc2ccc(N3CCCNCC3)cn12` [Compound 38, 7-(1,4-diazepan-1-yl)-2-(2,3-dihydro-1,4-benzodioxin-6-yl)-4H-pyrido[1,2-a]pyrimidin-4-one], the melting point is 180 to 182 °C. Further, the EC (1.5-fold increase) in series [1] is 3 to 30 µM. The “maximum fold (Fold) increase” value in series [2] was “* (A maximum fold increase of ≤1.2 is indicated by one star (*))”.
Molecule `CCN1CCC2CN(c3ccc4nc(-c5cc6c(C)nc(C)cn6n5)cc(=O)n4c3)CCC21` (centres unmarked) [Compound 623, 2-(4,6-dimethylpyrazolo[1,5-a]pyrazin-2-yl)-7-(1-ethyloctahydro-5H-pyrrolo[3,2-c]pyridin-5-yl)-4H-pyrido[1,2-a]pyrimidin-4-one] yielded a melting point of 176 to 178 °C. For the same molecule, the EC (1.5-fold increase) in series [1] was less than 0.1 µM. In series [2], the “EC1.5x for Smn protein expression” value is reported as “**** (an EC1.5x≤0.3 μM is indicated by four stars (****))” and the “maximum fold (Fold) increase” value is listed as “***** (a fold increase >1.65 is indicated by five stars (*****))”.
In turn, `COc1cccc(-c2cc(=O)n3cc(N4CCCN(C)CC4)ccc3n2)c1` [Compound 28, 2-(3-methoxyphenyl)-7-(4-methyl-1,4-diazepan-1-yl)-4H-pyrido[1,2-a]pyrimidin-4-one] gave a melting point of 130 to 132 °C. The EC (1.5-fold increase) in series [1] was in the range of 3 to 30 µM. The “maximum fold (Fold) increase” value in series [2] is “** (a fold increase between >1.2 and ≤1.35 is indicated by two stars (**))”.
The molecule `O=c1cc(-c2ccc3cc[nH]c3c2)nc2ccc(N3CCNCC3)cn12` [Compound 97, 2-(1H-indol-6-yl)-7-(piperazin-1-yl)-4H-pyrido[1,2-a]pyrimidin-4-one] gave a melting point of 202 to 206 °C. For the same molecule, in series [1], the EC (1.5-fold increase) was in the range of 1 to 3 µM. Further, in series [2], the “maximum fold (Fold) increase” value is “** (a fold increase between >1.2 and ≤1.35 is indicated by two stars (**))”.
For the molecule `Cc1cn2cc(-c3cc(=O)n4cc(C5=CCNCC5)ccc4n3)ccc2n1` [Compound 429, 2-(2-methylimidazo[1,2-a]pyridin-6-yl)-7-(1,2,3,6-tetrahydropyridin-4-yl)-4H-pyrido[1,2-a]pyrimidin-4-one], the melting point fell in the range of 206 to 208 °C. Further, in series [1], the EC (1.5-fold increase) is less than 0.1 µM. Also, in series [2], the “EC1.5x for Smn protein expression” value is “**** (an EC1.5x≤0.3 μM is indicated by four stars (****))”; the “maximum fold (Fold) increase” value is “**** (a fold increase between >1.5 and ≤1.65 is indicated by four stars (****))”.
Take `Cc1ccc(-c2cc(=O)n3cc(N4CCN[C@@H](C)C4)ccc3n2)cc1C` [Compound 56, 2-(3,4-dimethylphenyl)-7-[(3S)-3-methylpiperazin-1-yl]-4H-pyrido[1,2-a]pyrimidin-4-one]: the melting point is 207 to 209 °C. The EC (1.5-fold increase) in series [1] lay in the range of 1 to 3 µM. The “maximum fold (Fold) increase” value in series [2] is listed as “* (A maximum fold increase of ≤1.2 is indicated by one star (*))”.
In the case of `Cc1cc(-c2cc(=O)n3cc(N4CCN[C@@H](C)C4)ccc3n2)cc2cn(C)nc12` [Compound 750, 2-(2,7-dimethyl-2H-indazol-5-yl)-7-[(3S)-3-methylpiperazin-1-yl]-4H-pyrido[1,2-a]pyrimidin-4-one], the melting point lay in the range of 308 to 310 °C. Further, the EC (1.5-fold increase) in series [1] was less than 0.1 µM. In addition, in series [2], the “EC1.5x for Smn protein expression” value is “**** (an EC1.5x≤0.3 μM is indicated by four stars (****))” and the “maximum fold (Fold) increase” value is given as “***** (a fold increase >1.65 is indicated by five stars (*****))”.
`CCc1cc(-c2cc(=O)n3cc(N4CCN(C5CCC5)CC4)ccc3n2)cn2cc(C)nc12` [Compound 648, 7-(4-cyclobutylpiperazin-1-yl)-2-(8-ethyl-2-methylimidazo[1,2-a]pyridin-6-yl)-4H-pyrido[1,2-a]pyrimidin-4-one]: the melting point lay in the range of 274 to 279 °C. Also, the EC (1.5-fold increase) in series [1] was less than 0.1 µM. Moreover, in series [2], the “EC1.5x for Smn protein expression” value is recorded as “**** (an EC1.5x≤0.3 μM is indicated by four stars (****))” and the “maximum fold (Fold) increase” value was “***** (a fold increase >1.65 is indicated by five stars (*****))”.
Turning to `Cc1cn2nc(-c3cc(=O)n4cc(C5CCN(CCO)CC5)cc(C)c4n3)cc2c(C)n1` [Compound 703, 2-(4,6-dimethylpyrazolo[1,5-a]pyrazin-2-yl)-7-[1-(2-hydroxyethyl)piperidin-4-yl]-9-methyl-4H-pyrido[1,2-a]pyrimidin-4-one], the melting point was in the range of 224 to 233 °C. In series [1], the EC (1.5-fold increase) is less than 0.1 µM. In addition, in series [2], the “EC1.5x for Smn protein expression” value is listed as “**** (an EC1.5x≤0.3 μM is indicated by four stars (****))” and the “maximum fold (Fold) increase” value is recorded as “***** (a fold increase >1.65 is indicated by five stars (*****))”.
The corresponding values for `Cc1cn2nc(-c3cc(=O)n4cc(C5CCN(C6CCC6)CC5)ccc4n3)cc2c(C)n1` [Compound 642, 7-(1-cyclobutylpiperidin-4-yl)-2-(4,6-dimethylpyrazolo[1,5-a]pyrazin-2-yl)-4H-pyrido[1,2-a]pyrimidin-4-one] are 189 to 191 °C, less than 0.1 µM, “**** (an EC1.5x≤0.3 μM is indicated by four stars (****))” and “***** (a fold increase >1.65 is indicated by five stars (*****))”.
Molecule `Cc1nc2ccc(-c3cc(=O)n4cc(N5CCCNCC5)ccc4n3)cc2s1` [Compound 253, 7-(1,4-diazepan-1-yl)-2-(2-methyl-1,3-benzothiazol-6-yl)-4H-pyrido[1,2-a]pyrimidin-4-one] yielded a melting point of 205 to 207 °C. Moreover, the EC (1.5-fold increase) in series [1] lay within 1 to 3 µM. Besides, the “maximum fold (Fold) increase” value in series [2] is on record as “* (A maximum fold increase of ≤1.2 is indicated by one star (*))”.
For the molecule `CCCN1CCC(c2ccc3nc(-c4cc5c(C)nc(C)cn5n4)cc(=O)n3c2)CC1` [Compound 687, 2-(4,6-dimethylpyrazolo[1,5-a]pyrazin-2-yl)-7-(1-propylpiperidin-4-yl)-4H-pyrido[1,2-a]pyrimidin-4-one], the melting point was in the range of 185 to 187 °C. Also, the EC (1.5-fold increase) in series [1] was less than 0.1 µM. For the same molecule, in series [2], the “EC1.5x for Smn protein expression” value was “**** (an EC1.5x≤0.3 μM is indicated by four stars (****))”; the “maximum fold (Fold) increase” value is “**** (a fold increase between >1.5 and ≤1.65 is indicated by four stars (****))”.
As for `COc1ccc(-c2cc(=O)n3cc(N4C[C@H]5CN(C)C[C@H]5C4)ccc3n2)cc1F` [Compound 213, 2-(3-fluoro-4-methoxyphenyl)-7-[(3aR,6aS)-5-methylhexahydropyrrolo[3,4-c]pyrrol-2(1H)-yl]-4H-pyrido[1,2-a]pyrimidin-4-one], the melting point fell in the range of 204 to 210 °C. In addition, the EC (1.5-fold increase) in series [1] was 0.1 to 0.3 µM. Further, in series [2], the “EC1.5x for Smn protein expression” value is “**** (an EC1.5x≤0.3 μM is indicated by four stars (****))”; the “maximum fold (Fold) increase” value was “*** (a fold increase between >1.35 and ≤1.5 is indicated by three stars (***))”.

The values above are taken from patent US11753407B2, “Compounds for treating spinal muscular atrophy” (PTC Therapeutics, Inc., priority 2012, dated 2023).
